Results taken from US7348413B2, “Cancerous disease modifying antibodies” (Arius Research Inc., priority 2004, dated 2008).

System: PC-3, LnCap and CCD-27sk
Conditions: 5 days
Experimental: In conjunction with testing for antibody binding the cytotoxic effect of the hybridoma supernatants were tested in the same cell lines: PC-3, LnCap and CCD-27sk. The Live/Dead cytotoxicity assay was obtained from Molecular Probes (Eu, OR). The assays were performed according to the manufacturer's instructions with the changes outlined below. Cells were plated before the assay at the predetermined appropriate density. After 2 days, 100 μl of supernatant from the hybridoma microtitre plates were transferred to the cell plates and incubated in a 5 percent CO2 incubator for 5 days. […] After 5 days of treatment, the plates were then emptied by inverting and blotting dry. Room temperature DPBS (Dulbecco's phosphate buffered saline) containing MgCl2 and CaCl2 was dispensed into each well from a multichannel squeeze bottle, tapped 3 times, emptied by inversion and then blotted dry. 50 μl of the fluorescent calcein dye diluted in DPBS containing MgCl2 and CaCl2 was added to each well and incubated at 37° C. in a 5% CO2 incubator for 30 minutes. The plates were read in a Perkin-Elmer HTS7000 fluorescence plate reader and the data was analyzed in Microsoft Excel.

Row | Compound | cytotoxicity of positive controls
1 | C[C@@H]1C[C@@H]([C@H](O)CC2CC(=O)NC(=O)C2)C(=O)[C@@H](C)C1 [cycloheximide] | generally produced cytotoxicity as expected
2 | [N-]=[N+]=[N-] [NaN3, sodium azide] | generally produced cytotoxicity as expected
